The values below come from US11325937B2, “Glycoside compound and preparation method therefor, composition, application, and intermediate” (SHANGHAI HUTCHISON PHARMACEUTICALS LIMITED, priority 2018, dated 2022).

Experiment [1] relates to HUVEC-12 endothelial cells. The experiment in a line: Proliferation of HUVEC-12 endothelial cells (MTT). In kind it is cell-based, Human. The settings on record: HUVEC-12 treated with supernatant of macrophages co-incubated 24 h with compound, 10 μM (s- groups). As to the method: The experiment included seven groups. In Group 1, HUVEC-12 endothelial cells (purchased from Shanghai RongChuang Biotech Co., Ltd.) were treated directly with simple DMEM medium (Gibcol, Shanghai) containing 10% FBS ([…], Germany) (control). In Group 2, the endothelial cells were treated with the supernatant obtained 24 h after macrophages were cultured with DMEM medium containing 10% FBS (s-control). […] In Group 5, the endothelial cells cultured with DMEM medium containing 10% FBS were treated directly with Cpd-18 (Salvianolate) (cpd-18, 10 μM). In Group 6, the endothelial cells were treated with the supernatant obtained after macrophages cultured with DMEM medium containing 10% FBS were treated and co-incubated with Cpd-18 (Salvianolate, 10 μM) for 24 h (s-cpd18). In Group 7, the endothelial cells cultured with DMEM medium containing 10% FBS were treated directly with VEGFD (Recombinant Human VEGF165, 10 ng/mL). Human umbilical vein endothelial cells HUVEC-12 in logarithmic growth phase were counted, adjusted to a cell density of 2.5×10^4 cells/mL, and inoculated in 100 μL per well in a 96-well plate. […] Based on the measured absorbance (OD), the HUVEC-12 endothelial cells treated directly with simple DMEM medium (control) were used as a blank control (Group 1), the percentage of cell proliferation in each group was calculated, and compared. […]

In experiment [2] the test system is HUVEC-12 endothelial cells. In words: Migration of HUVEC-12 endothelial cells (scratch test). In kind it is cell-based, Human. The procedure: The experiment included seven groups. In Group 1, HUVEC-12 endothelial cells (purchased from Shanghai RongChuang Biotech Co., Ltd.) were treated directly with simple DMEM medium (Gibcol, Shanghai) containing 10% FBS (SERANA, Germany) (control). In Group 2, the endothelial cells were treated with the supernatant obtained 24 h after macrophages were cultured with DMEM medium containing 10% FBS (s-control). In Group 3, the endothelial cells cultured with DMEM medium containing 10% FBS were treated directly with TG-028 (TG-028, 10 μM). In Group 4, the endothelial cells were treated with the supernatant obtained after macrophages cultured with DMEM medium containing 10% FBS were treated and co-incubated with TG-028 for 24 h (s-TG-028, […]). In Group 5, the endothelial cells cultured with DMEM medium containing 10% FBS were treated directly with Cpd-18 (Salvianolate) (cpd-18, 10 μM). In Group 6, the endothelial cells were treated with the supernatant obtained after macrophages cultured with DMEM medium containing 10% FBS were treated and co-incubated with Cpd-18 (Salvianolate, 10 μM) for 24 h (s-cpd18). In Group 7, the endothelial cells cultured with DMEM medium containing 10% FBS were treated directly with VEGFD (Recombinant Human VEGF165, 10 ng/mL).
Human umbilical vein endothelial cells HUVEC-12 in logarithmic growth phase were counted, adjusted to a cell density of 5×10^5 cells/mL, and inoculated in 1 mL per well in a 6-well plate. The cells were conventionally cultured in an incubator to form monolayer cells of 90% confluency. The 6-well plate fully plated with cells was scratched perpendicular to the cell surface with a 200 μL pipette tip from one end to the other end of the well. The scratches were made transversely with the pipette tip being as perpendicular as possible to the bottom of the plate. […]
The medium was aspirated and the cells scratched off were washed off with PBS. […] The migration of endothelial cells was detected according to the cell scratch method and the relative migration rate was calculated. […]

The structures appear in SMILES notation.

As to `COc1ccc(CCCCO[C@@H]2O[C@H](CO)[C@@H](O)[C@H](O)[C@H]2O)cc1` [TG-028], in experiment [1], the “promotion of proliferation of endothelial cells (in words)” value is “more potent promotion on the proliferation of endothelial cells than the direct treatment of endothelial cells with VEGF”. In addition, the “effect on migration of endothelial cells (in words)” value in experiment [2] (HUVEC-12 treated with supernatant of macrophages co-incubated 24 h with compound, 10 μM (s- groups)) is “comparable effect on the migration of endothelial cells as VEGF”; in experiment [2] (direct treatment of HUVEC-12, 24 h, compounds 10 μM, VEGF165 10 ng/mL, vs control medium), “significant effect on the migration of endothelial cells”.
